According to US5716982A, “Retinoids and methods of use of same” (priority 1995, dated 1998):

Key:
[1] = test system: melanoma cell growth; settings: Jing et al. 1992; cited from earlier work
[2] = test system: Human promyelocytic leukemia HL-60 cells; assay: Cell differentiation of HL-60 cells, nitroblue tetrazolium (NBT) reduction; assay type: cell-based; settings: Homo sapiens; HL-60 (Table 16); read-out: NBT
Method: Human promyelocytic leukemia HL-60 cells were cultured in RPMI-1640 medium supplemented by 10% heat-inactivated calf serum and 100 U/ml of penicillin plus 100 μg/ml of streptomycin. The flasks containing cells and medium were incubated in an incubator with 5% CO2 at 37° C. Log phase cells were seeded into the medium at a concentration of 1.2×10^5to 1.4×10^5 cells per ml and cultured in flasks containing 5 ml of medium. Each group consisted of three flasks. Different concentrations of coumarin-retinoids were added. At intervals following the addition of coumarin-retinoids to the cultures, a small portion of cells was removed and live cells were counted under a light microscope using a dye-exclusionmethod with trypan blue. Cell differentiation was judged in terms of morphology and nitroblue tetrazolium (NBT) reduction.
For a determination of NBT reducing activity, a portion of the coumarin-retinoid-treated cells was removed at intervals following treatment and centrifuged. After centrifugation, 0.5 ml of 0.1% NBT (containing 100 ng TPA) was added to each tube. The contents of the test tubes were then incubated for 1 hour at 37° C. Cell smears were prepared from the cell sediment and stained using the Wright-Giemsa technique. For each smear prepared, 200 cells were isolated for examination under a light microscope with an oil immersion lens. Cells stained with blue-black granules were considered NBT-positive cells. The 50% differentiation or effective concentration (ED50 or EC50) is shown in terms of molar (M) concentration of the […] tested.
(§1) The protocols of Examples 14 and 21 were used, for the NBT and MTT assays, respectively.

[3] = test system: HCT-8 cell line; assay: MTT assay in HCT-8 cells; assay type: cell-based; settings: Homo sapiens, HCT-8, 120 h; read-out: MTT ED50
[4] = test system: A2780 cell line; assay: MTT assay in A2780 cells; assay type: cell-based; settings: Homo sapiens, A2780, 120 h; read-out: MTT ED50
Method: (§2) Human cancer cell lines (KB, A2780, MCF-7, HL-60, A549) were used. For a monolayer culture, 0.5 ml of trypsin solution ([…]) was added to the flasks for digestion. Microtiter plates (96 well) were used for the cell culture and 200 μl of cell suspension (1200 tumor cells) were placed in each well and incubated at 37° C. for 24 hours. Following the addition of the test compound, the control and treated flasks were placed in a CO2 incubator for 5 day culture. For the MTT assay, 200 μl of MTT solution (5 mg in 10 ml of phosphate buffer) plus the medium were added and incubated for another 4 hours. Following incubation, the supernatant was discarded and 200 μl of DMSO was added to each well. With a mild agitation the OD values were determined by the MR 700 Elisa at 570 nm (reference wavelength was 450 nm). The ED50 of the compound and tumor cell survival rate [formula] as percent inhibition were calculated.
as §1

[5] = test system: KB cell line; assay: MTT assay in KB cells; assay type: cell-based; settings: Homo sapiens, 120 h, read-out: MTT ED50
Method: as §2, §1

[6] = test system: BEL 7402 cell line; assay: MTT assay in BEL 7402 cells; assay type: cell-based; settings: Homo sapiens, Bel-7402, 120 h; Bel7402; read-out: MTT ED50
[7] = Preuss-Ueberschar et al. 1984; cited from earlier work

Compound	melanoma cell growth [1]	EC50 [2] [µM]	IC50 [3] [µM]	IC50 [4] [µM]	IC50 [5] [µM]	IC50 [6] [µM]	teratogenicity [7]
O=c1c(-c2ccc(O)cc2)coc2cc(O)ccc12 [diadzein]	inhibits melanoma cell growth	–	–	–	–	–	–
CC1=C(/C=C/C(C)=C/C=C/C(C)=C/C(=O)n2cnc3c(=O)[nH]c(N)nc32)C(C)(C)CCC1 [II-F]	–	> 10	> 10	> 10	> 10	> 10	–
CC1=C(/C=C/C(C)=C/C=C/C(C)=C/C(=O)Nc2nc3c(ncn3C(=O)/C=C(C)/C=C/C=C(C)/C=C/C3=C(C)CCCC3(C)C)c(=O)[nH]2)C(C)(C)CCC1 [II-D]	–	> 10	4	> 10	> 10	5	–
O=c1ccc2ccccc2o1 [coumarin]	–	–	–	–	–	–	not teratogenic
